# Source: PMC11211671, “Phage‐displayed heptapeptide sequence conjugation significantly improves the specific targeting ability of antimicrobial peptides against Staphylococcus aureus” (mLife, 2024)
# Peptide text beside a SMILES is read from it.
# Key:
# S. epidermidis 12228 = format: cell-based, Staphylococcus epidermidis
# Description: (§1) MICs were determined to evaluate the antimicrobial activities of the peptides. The bacteria were inoculated into Mueller‐Hinton broth (MHB) medium in advance and placed in a shaker at 37°C until the logarithmic growth phase. The optical density value at OD600 of the bacterial suspension was adjusted to 0.4, and then diluted 1000 times with sterile MHB medium. Subsequently, the peptides with concentrations of 0.25–128 μM were prepared using bovine serum albumin (BSA) solution (0.2% BSA and 0.01% acetic acid) as the solvent on a 96‐well plate. Different concentrations of peptides and bacterial liquids were mixed in equal volumes. MHB medium containing bacteria was used as a positive control. MHB medium without bacteria was used as a negative control. Then, the mixture of peptides and bacteria was cultured in an incubator at 37°C for 18–24 h. The optical density of each well was measured at 492 nm using a microplate reader. The lowest drug concentration corresponding to a culture mixture with an optical density of less than 0.1 is the MIC of the peptide. The assay was repeated three times in duplicate.
# P. aeruginosa 27853 = format: cell-based, Pseudomonas aeruginosa
# Description: as §1
# P. aeruginosa 15442 = format: cell-based, Pseudomonas aeruginosa
# Description: as §1
# S. aureus 1882 = format: cell-based, Staphylococcus aureus
# Description: as §1
# S. aureus 6538 = format: cell-based, Staphylococcus aureus
# Description: as §1
# E. coli K88 = format: cell-based, Escherichia coli; settings: microbroth dilution, MHB, 37°C, 18–24 h, OD492 < 0.1; repeated three times in duplicate
# Description: as §1
# E. coli 25922 = format: cell-based, Escherichia coli
# Description: as §1
# E. coli K99 = format: cell-based, Escherichia coli; settings: microbroth dilution, MHB, 37°C, 18–24 h, OD492 < 0.1; repeated three times in duplicate
# Description: as §1
# red blood cells = format: cell-based, pig
# Description: A series of parameters such as charge number, hydrophobicity, sequence length, and amphipathicity can affect the hemolytic activity of peptides against red blood cells. The minimal hemolytic concentration (MHC) refers to the minimum concentration that causes hemolysis of 10 % of red blood cells, and is often used to evaluate the hemolytic activity of the peptides. Except for SFK3, the percentage of hemolysis at 128 μM was below 5% for all peptides. Hemolysis of the erythrocytes occurred after incubation with Triton X‐100, with complete fragmentation of the erythrocytes and a bright red color of the reaction system (Figure 2B,C and Table S5).
# The hemolytic activity of the peptide was calculated by measuring the level of […] released from mammalian red blood cell lysis induced by the peptide, [44]. Fresh porcine blood was collected from the jugular vein and washed with PBS three times, and red blood cells were collected. A red blood cell suspension of 10% (v/v) concentration was prepared in 10 mM PBS (pH = 7.4). After mixing with different concentrations of peptides in equal volume, they were incubated at 37°C for 2 h. Red blood cells treated with PBS and 0.1% Triton X‐100 were used as negative and positive controls, respectively. The assay was repeated three times. After the sample was centrifuged, the supernatant was transferred to a new 96‐well plate, and the optical density at 570 nm was measured using a microplate reader. Hemolysis was calculated as follows: Hemolytic activity(%)=ODtest sample−ODnegative control/ODpositive control−ODnegative control×100%
# S. aureus ATCC 6538 = test: Drug resistance assay, continuous passaging at sub-MIC; format: cell-based, Staphylococcus aureus
# Description: The fold change in the MIC of peptides and […] against S. aureus ATCC 6538 was measured using the continuous passaging method to evaluate the development of drug resistance. The MIC values of the peptide and vancomycin against S. aureus ATCC 6538 were determined according to the above method, and the solutions in the sub‐MIC wells were aspirated and transferred to a fresh MHB medium for the next round of MIC determination. The procedure lasted for 30 days.
SMILES,MIC S. epidermidis 12228 (S. epidermidis 12228),MIC P. aeruginosa 27853 (P. aeruginosa 27853),MIC P. aeruginosa 15442 (P. aeruginosa 15442),MIC S. aureus 1882 (S. aureus 1882),MIC S. aureus 6538 (S. aureus 6538),MIC E. coli K88 (E. coli K88),MIC E. coli 25922 (E. coli 25922),MIC E. coli K99 (E. coli K99),MHC (red blood cells),"Fold increase of MIC compared with the initial value (S. aureus ATCC 6538; Day 9, sub-MIC passaging)","MIC relative to the initial value (S. aureus ATCC 6538; end of the trial (30 days), sub-MIC passaging)"
CC[C@H](C)[C@H](NC(=O)[C@H](CCCNC(=N)N)NC(=O)[C@H](CO)NC(=O)[C@H](CC(C)C)NC(=O)[C@H](Cc1ccccc1)NC(=O)[C@H](Cc1ccccc1)NC(=O)[C@H](Cc1ccccc1)NC(=O)CNC(=O)CNC(=O)CNC(=O)[C@H](CO)NC(=O)[C@H](C)NC(=O)[C@H](CCCNC(=N)N)NC(=O)[C@@H](NC(=O)[C@H](Cc1c[nH]c2ccccc12)NC(=O)[C@H](Cc1ccc(O)cc1)NC(=O)[C@@H](N)CO)C(C)C)C(=O)N[C@@H](Cc1ccccc1)C(=O)N[C@@H](CCCCN)C(=O)N[C@@H](CCCCN)C(=O)N[C@@H](CCCCN)C(N)=O [SFK3] (H-SYWVRASGGGFFFLSRIFKKK-NH2),>64 µM,>64 µM,>64 µM,1 µM,2 µM,16 µM,>64 µM,16 µM,>128 μM,,
CC[C@H](C)[C@H](NC(=O)[C@H](CCCNC(=N)N)NC(=O)[C@H](CO)NC(=O)[C@H](CC(C)C)NC(=O)[C@H](Cc1ccccc1)NC(=O)[C@H](Cc1ccccc1)NC(=O)[C@H](Cc1ccccc1)NC(=O)CNC(=O)CNC(=O)CNC(=O)[C@H](CO)NC(=O)[C@H](C)NC(=O)[C@H](CCCNC(=N)N)NC(=O)[C@@H](NC(=O)[C@H](Cc1c[nH]c2ccccc12)NC(=O)[C@H](Cc1ccc(O)cc1)NC(=O)[C@@H](N)CO)C(C)C)C(=O)N[C@@H](Cc1ccccc1)C(=O)N[C@@H](CCCCN)C(N)=O [SFK] (H-SYWVRASGGGFFFLSRIFK-NH2),>64 µM,>64 µM,>64 µM,2 µM,4 µM,32 µM,>64 µM,64 µM,>128 μM,,
CC[C@H](C)[C@H](NC(=O)[C@H](CCCNC(=N)N)NC(=O)[C@H](CO)NC(=O)[C@H](CC(C)C)NC(=O)[C@H](Cc1ccccc1)NC(=O)[C@H](Cc1ccccc1)NC(=O)[C@H](Cc1ccccc1)NC(=O)CNC(=O)CNC(=O)CNC(=O)[C@H](CO)NC(=O)[C@H](C)NC(=O)[C@H](CCCNC(=N)N)NC(=O)[C@@H](NC(=O)[C@H](Cc1c[nH]c2ccccc12)NC(=O)[C@H](Cc1ccc(O)cc1)NC(=O)[C@@H](N)CO)C(C)C)C(=O)N[C@@H](Cc1ccccc1)C(=O)N[C@@H](CCCNC(=N)N)C(=O)N[C@@H](CCCNC(=N)N)C(N)=O [SFR2] (H-SYWVRASGGGFFFLSRIFRR-NH2),>64 µM,>64 µM,>64 µM,1 µM,4 µM,32 µM,>64 µM,64 µM,>128 μM,,
CC[C@H](C)[C@H](NC(=O)[C@H](CCCNC(=N)N)NC(=O)[C@H](CO)NC(=O)[C@H](CC(C)C)NC(=O)[C@H](Cc1ccccc1)NC(=O)[C@H](Cc1ccccc1)NC(=O)[C@H](Cc1ccccc1)NC(=O)CNC(=O)CNC(=O)CNC(=O)[C@H](CO)NC(=O)[C@H](C)NC(=O)[C@H](CCCNC(=N)N)NC(=O)[C@@H](NC(=O)[C@H](Cc1c[nH]c2ccccc12)NC(=O)[C@H](Cc1ccc(O)cc1)NC(=O)[C@@H](N)CO)C(C)C)C(=O)N[C@@H](Cc1ccccc1)C(=O)N[C@@H](CCCNC(=N)N)C(=O)N[C@@H](CCCNC(=N)N)C(=O)N[C@@H](CCCNC(=N)N)C(N)=O [SFR3] (H-SYWVRASGGGFFFLSRIFRRR-NH2),>64 µM,>64 µM,>64 µM,4 µM,16 µM,32 µM,>64 µM,>64 µM,>128 μM,,
CC[C@H](C)[C@H](NC(=O)[C@H](CCCNC(=N)N)NC(=O)[C@H](CO)NC(=O)[C@H](CC(C)C)NC(=O)[C@H](Cc1ccccc1)NC(=O)[C@H](Cc1ccccc1)NC(=O)[C@H](Cc1ccccc1)NC(=O)CNC(=O)CNC(=O)CNC(=O)[C@H](CO)NC(=O)[C@H](C)NC(=O)[C@H](CCCNC(=N)N)NC(=O)[C@@H](NC(=O)[C@H](Cc1c[nH]c2ccccc12)NC(=O)[C@H](Cc1ccc(O)cc1)NC(=O)[C@@H](N)CO)C(C)C)C(=O)N[C@@H](Cc1ccccc1)C(=O)N[C@@H](CCCNC(=N)N)C(N)=O [SFR] (H-SYWVRASGGGFFFLSRIFR-NH2),>64 µM,>64 µM,>64 µM,2 µM,2 µM,32 µM,>64 µM,32 µM,>128 μM,,
CC[C@H](C)[C@H](NC(=O)[C@H](CCCNC(=N)N)NC(=O)[C@H](CO)NC(=O)[C@H](CC(C)C)NC(=O)[C@H](Cc1ccccc1)NC(=O)[C@H](Cc1ccccc1)NC(=O)[C@H](Cc1ccccc1)NC(=O)CNC(=O)CNC(=O)CNC(=O)[C@H](CO)NC(=O)[C@H](C)NC(=O)[C@H](CCCNC(=N)N)NC(=O)[C@@H](NC(=O)[C@H](Cc1c[nH]c2ccccc12)NC(=O)[C@H](Cc1ccc(O)cc1)NC(=O)[C@@H](N)CO)C(C)C)C(=O)N[C@@H](Cc1ccccc1)C(N)=O [SF] (H-SYWVRASGGGFFFLSRIF-NH2),>64 µM,>64 µM,>64 µM,2 µM,16 µM,>64 µM,>64 µM,>64 µM,>128 μM,,
O=C(O)c1cn(C2CC2)c2cc(N3CCNCC3)c(F)cc2c1=O [ciprofloxacin],,,,,,,,,,16 fold,2560 times
